Experiments:
CFTR = target: T1, CFTR (Homo sapiens, UniProt P13569, DEL508-508); assay: TECC24 AUC fold over DMSO @10 μM, CFTR-mediated transepithelial chloride transport in CF-HBE cells; format: cell-based; details: test agent AUC divided by DMSO vehicle AUC, primary CF-HBE cells, ΔF508 homozygous donor, 48 hours incubation
T1 construct: Primary human bronchial epithelial cells from a ΔF508 homozygous CF donor; host or cells: primary human bronchial epithelial cells (CF-HBE), ΔF508 homozygous donor
T1 sequence (P13569 with tags, fused parts or gaps DEL508-508): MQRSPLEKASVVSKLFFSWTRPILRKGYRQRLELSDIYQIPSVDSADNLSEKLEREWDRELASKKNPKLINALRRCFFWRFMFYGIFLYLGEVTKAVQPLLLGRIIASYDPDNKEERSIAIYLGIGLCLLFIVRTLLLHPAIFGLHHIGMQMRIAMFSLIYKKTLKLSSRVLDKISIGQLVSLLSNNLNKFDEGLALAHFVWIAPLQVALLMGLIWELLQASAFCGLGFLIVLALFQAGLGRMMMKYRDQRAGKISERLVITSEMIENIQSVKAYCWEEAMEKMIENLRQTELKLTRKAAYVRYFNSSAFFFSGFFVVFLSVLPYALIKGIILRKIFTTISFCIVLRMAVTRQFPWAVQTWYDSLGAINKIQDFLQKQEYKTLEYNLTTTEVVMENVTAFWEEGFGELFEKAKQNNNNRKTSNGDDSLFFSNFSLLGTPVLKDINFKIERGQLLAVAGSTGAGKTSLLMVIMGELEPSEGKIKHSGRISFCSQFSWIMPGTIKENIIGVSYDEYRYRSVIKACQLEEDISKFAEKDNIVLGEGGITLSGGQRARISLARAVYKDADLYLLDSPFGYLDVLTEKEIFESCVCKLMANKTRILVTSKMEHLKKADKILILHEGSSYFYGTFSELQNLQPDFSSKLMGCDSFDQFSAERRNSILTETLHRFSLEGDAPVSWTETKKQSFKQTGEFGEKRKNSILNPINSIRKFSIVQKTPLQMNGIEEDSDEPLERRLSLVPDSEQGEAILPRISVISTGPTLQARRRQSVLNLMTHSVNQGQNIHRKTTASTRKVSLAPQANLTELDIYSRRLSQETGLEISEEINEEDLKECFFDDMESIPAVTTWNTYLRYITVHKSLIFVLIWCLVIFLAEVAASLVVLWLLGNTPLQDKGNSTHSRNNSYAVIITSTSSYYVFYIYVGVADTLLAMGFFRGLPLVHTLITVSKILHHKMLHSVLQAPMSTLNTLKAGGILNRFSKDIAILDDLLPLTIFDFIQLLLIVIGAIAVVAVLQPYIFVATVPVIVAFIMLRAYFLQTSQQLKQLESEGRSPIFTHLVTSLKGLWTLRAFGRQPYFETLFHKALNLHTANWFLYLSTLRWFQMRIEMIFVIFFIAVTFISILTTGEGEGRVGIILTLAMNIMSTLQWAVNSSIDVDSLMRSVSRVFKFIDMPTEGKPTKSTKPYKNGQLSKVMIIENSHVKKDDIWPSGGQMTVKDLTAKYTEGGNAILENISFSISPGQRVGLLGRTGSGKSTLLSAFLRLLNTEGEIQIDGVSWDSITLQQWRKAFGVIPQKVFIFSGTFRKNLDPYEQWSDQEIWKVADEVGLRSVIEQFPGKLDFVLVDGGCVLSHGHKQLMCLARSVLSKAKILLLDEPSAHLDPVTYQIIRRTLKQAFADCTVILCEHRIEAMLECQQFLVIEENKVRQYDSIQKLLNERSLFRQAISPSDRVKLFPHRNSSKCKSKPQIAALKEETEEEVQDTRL
Method in brief: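 ΔF508-homozygous primary bronchial epithelial cells incubated 48 h at 36.5° C with compound (10 μM) in IL-13-containing medium, then TECC24 current-clamp recording in pH 7.4 Hepes saline with benzamil 10 μM, forskolin 10 μM, then CFTR inhibitor-172 20 μM. Equivalent Cl− current AUC between forskolin and inhibitor, expressed as fold over DMSO.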

NBD1 = target: T2, NBD1 (Homo sapiens, UniProt P13569); assay: Aggregation analysis using differential static light scattering (DSLS), thermal stability of NBD1 (ΔTagg); format: binding; details: ΔTagg versus DMSO control, NBD1 0.2 mg/ml
T2 construct: Purified recombinant NBD1 was produced using previously described methods; made in house
T2 sequence (P13569 423-646 limits assumed): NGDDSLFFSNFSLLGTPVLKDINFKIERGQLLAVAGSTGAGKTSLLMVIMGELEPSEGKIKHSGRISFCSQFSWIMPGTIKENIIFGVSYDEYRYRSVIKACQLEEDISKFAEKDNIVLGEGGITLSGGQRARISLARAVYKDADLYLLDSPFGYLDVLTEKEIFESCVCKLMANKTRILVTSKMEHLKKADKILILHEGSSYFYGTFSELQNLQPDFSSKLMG
Method in brief: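 Thermal aggregation of purified NBD1 was followed by static light scattering during a 1° C./min ramp to 70° C. Protein was at 0.2 mg/ml with 2 mM ATP at pH7.6. Each compound's Tagg was referenced to DMSO controls.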

SMILES	TECC (AUC, 10 μM) (CFTR)	DSLS 3D (100 μM ΔT) (NBD1)
C[C@@H](Cc1cccc([C@@]2(C)CCCC(C)(C)CS(=O)(=O)CCc3c(c(F)c(F)c4[nH]ccc34)Oc3ccnc(c3)-c3nc2nn3C)c1)C(=O)O [Compound 262, (2S)-3-[3-[(6R)-21,22-Difluoro-3,6,10,10-tetramethyl-12,12-dioxo-24-oxa-12λ6-thia-3,4,19,28,30-pentazapentacyclo[23.3.1.12,5.015,23.016,20]triaconta-1(29),2(30),4,15,17,20,22,25,27-nonaen-6-yl]phenyl]-2-methyl-propanoic Acid]	C (a value between 20 and 80 is marked “C”)	C (a value greater than 10 °C and less than or equal to 25 °C is marked “C”)
C[C@@H](O)Cc1cccc([C@@]2(C)CCCC(C)(C)CS(=O)(=O)CCc3c(c(F)cc4[nH]ccc34)Sc3ccc(F)c(c3)-c3nc2nn3C)c1 [Compound 263, (2R)-1-[3-[(6R)-22,28-difluoro-3,6,10,10-tetramethyl-12,12-dioxo-12λ6,24-dithia-3,4,19,30-tetrazapentacyclo[23.3.1.12,5.015,23.016,20]triaconta-1(29),2(30),4,15,17,20,22,25,27-nonaen-6-yl]phenyl]propan-2-ol]	C (a value between 20 and 80 is marked “C”)	B (a value above 5 °C and less than or equal to 10 °C is marked “B”)
COC(=O)[C@H](C)Cc1cccc([C@@]2(C)CCCC(C)(C)CS(=O)(=O)CCc3c(c(F)cc4[nH]ccc34)Oc3cnnc(c3)-c3nc2nn3C)c1 [Compound 265, Methyl (2R)-3-[3-[(6R)-22-fluoro-3,6,10,10-tetramethyl-12,12-dioxo-24-oxa-12λ6-thia-3,4,19,27,28,30-hexazapentacyclo[23.3.1.12,5.015,23.016,20]triaconta-1(29),2(30),4,15,17,20,22,25,27-nonaen-6-yl]phenyl]-2-methyl-propanoate]	C (a value between 20 and 80 is marked “C”)	B (a value above 5 °C and less than or equal to 10 °C is marked “B”)
C[C@@H](Cc1cccc([C@@]2(C)CCCC(C)(C)CS(=O)(=O)CCc3c(c(F)c(F)c4[nH]ccc34)[S+]([O-])c3ccnc(c3)-c3nc2nn3C)c1)C(=O)O (stereo partly drawn) [Compound 267, (2S)-3-[3-[(6R)-21,22-Difluoro-3,6,10,10-tetramethyl-12,12,24-trioxo-12λ6,24λ4-dithia-3,4,19,28,30-pentazapentacyclo[23.3.1.12,5.015,23.016,20]triaconta-1(29),2(30),4,15,17,20,22,25,27-nonaen-6-yl]phenyl]-2-methyl-propanoic Acid]	C (a value between 20 and 80 is marked “C”)	C (a value greater than 10 °C and less than or equal to 25 °C is marked “C”)
C[C@@H](Cc1cccc([C@@]2(C)CCCC(C)(C)CS(=O)(=O)CCc3c(c(F)c(F)c4[nH]ccc34)Sc3ccnc(c3)-c3nc2nn3C)c1)C(=O)O [Compound 268, (2S)-3-[3-[(6R)-21,22-Difluoro-3,6,10,10-tetramethyl-12,12-dioxo-12λ6,24-dithia-3,4,19,28,30-pentazapentacyclo[23.3.1.12,5.015,23.016,20]triaconta-1(29),2(30),4,15,17,20,22,25,27-nonaen-6-yl]phenyl]-2-methyl-propanoic Acid]	B (a value between 12-20 is marked “B”)	C (a value greater than 10 °C and less than or equal to 25 °C is marked “C”)
C[C@H](Cc1cccc([C@@]2(C)CCCC(C)(C)CS(=O)(=O)CCc3c(c(F)c(F)c4[nH]ccc34)Sc3ccnc(c3)-c3nc2nn3C)c1)C(=O)O [Compound 270, (2R)-3-[3-[(6R)-21,22-difluoro-3,6,10,10-tetramethyl-12,12-dioxo-12λ6,24-dithia-3,4,19,28,30-pentazapentacyclo[23.3.1.12,5.015,23.016,20]triaconta-1(29),2(30),4,15,17,20,22,25,27-nonaen-6-yl]phenyl]-2-methyl-propanoic Acid]	B (a value between 12-20 is marked “B”)	C (a value greater than 10 °C and less than or equal to 25 °C is marked “C”)
Cn1nc2nc1-c1cc(ccn1)Sc1c(F)cc3[nH]ccc3c1CCS(=O)(=O)CC(C)(C)CCC[C@]2(C)c1cccc(CC2(C(=O)O)CC2)c1 [Compound 272, 1-[[3-[(6R)-22-Fluoro-3,6,10,10-tetramethyl-12,12-dioxo-12λ6,24-dithia-3,4,19,28,30-pentazapentacyclo[23.3.1.12,5.015,23.016,20]triaconta-1(29),2(30),4,15,17,20,22,25,27-nonaen-6-yl]phenyl]methyl]cyclopropanecarboxylic Acid]	C (a value between 20 and 80 is marked “C”)	C (a value greater than 10 °C and less than or equal to 25 °C is marked “C”)
Cn1nc2nc1-c1cc(ccn1)Sc1c(F)cc3[nH]ccc3c1CCS(=O)(=O)CC(C)(C)CCC[C@]2(C)c1cccc(CC(C)(C)C(=O)O)c1 [Compound 273, 3-[3-[(6R)-22-Fluoro-3,6,10,10-tetramethyl-12,12-dioxo-12λ6,24-dithia-3,4,19,28,30-pentazapentacyclo[23.3.1.12,5.015,23.016,20]triaconta-1(29),2(30),4,15,17,20,22,25,27-nonaen-6-yl]phenyl]-2,2-dimethyl-propanoic Acid]	B (a value between 12-20 is marked “B”)	C (a value greater than 10 °C and less than or equal to 25 °C is marked “C”)
Cn1nc2nc1-c1cc(ccn1)Sc1c(F)c(F)c3[nH]ccc3c1CCS(=O)(=O)CC(C)(C)CCC[C@]2(C)c1cccc(CC(C)(C)C(=O)O)c1 [Compound 275, 3-[3-[(6R)-21,22-Difluoro-3,6,10,10-tetramethyl-12,12-dioxo-12λ6,24-dithia-3,4,19,28,30-pentazapentacyclo[23.3.1.12,5.015,23.016,20]triaconta-1(29),2(30),4,15,17,20,22,25,27-nonaen-6-yl]phenyl]-2,2-dimethyl-propanoic Acid]	C (a value between 20 and 80 is marked “C”)	C (a value greater than 10 °C and less than or equal to 25 °C is marked “C”)
Cn1nc2nc1-c1cc(ccn1)Sc1c(F)c(F)c3[nH]ccc3c1CCS(=O)(=O)CC(C)(C)CCC[C@]2(C)c1cccc(CCC(=O)O)c1 [Compound 276, 3-[3-[(6R)-21,22-difluoro-3,6,10,10-tetramethyl-12,12-dioxo-12λ6,24-dithia-3,4,19,28,30-pentazapentacyclo[23.3.1.12,5.015,23.016,20]triaconta-1(29),2(30),4,15,17,20,22,25,27-nonaen-6-yl]phenyl]propanoic Acid]	B (a value between 12-20 is marked “B”)	C (a value greater than 10 °C and less than or equal to 25 °C is marked “C”)
C[C@@H](Cc1cccc([C@@]2(C)CCCC(C)(C)CS(=O)(=O)CCc3c(c(F)cc4[nH]ccc34)Sc3ccnc(c3)-c3nc2nn3C)c1F)C(=O)O [Compound 277, (2S)-3-[2-fluoro-3-[(6R)-22-fluoro-3,6,10,10-tetramethyl-12,12-dioxo-12λ6,24-dithia-3,4,19,28,30-pentazapentacyclo[23.3.1.12,5.015,23.016,20]triaconta-1(29),2(30),4,15,17,20,22,25,27-nonaen-6-yl]phenyl]-2-methyl-propanoic acid]	A (a TECC value less than 12 is marked “A”)	C (a value greater than 10 °C and less than or equal to 25 °C is marked “C”)
Cn1nc2nc1-c1cc(ccn1)[S+]([O-])c1c(F)cc3[nH]ccc3c1CCS(=O)(=O)CC(C)(C)CCC[C@]2(C)c1cccc(CC(C)(C)C(=O)O)c1 (stereo partly drawn) [Compound 278, 3-[3-[(6R)-22-fluoro-3,6,10,10-tetramethyl-12,12,24-trioxo-12λ6,24λ4-dithia-3,4,19,28,30-pentazapentacyclo[23.3.1.12,5.015,23.016,20]triaconta-1(29),2(30),4,15,17,20,22,25,27-nonaen-6-yl]phenyl]-2,2-dimethyl-propanoic Acid]	C (a value between 20 and 80 is marked “C”)	C (a value greater than 10 °C and less than or equal to 25 °C is marked “C”)
Cn1nc2nc1-c1cc(ccc1F)Sc1c(F)c(F)c3[nH]ccc3c1CCS(=O)(=O)CC(C)(C)CCC[C@]2(C)c1cccc(CC(C)(C)C(=O)O)c1 [Compound 279, 2,2-Dimethyl-3-[3-[(6R)-21,22,28-trifluoro-3,6,10,10-tetramethyl-12,12-dioxo-12λ6,24-dithia-3,4,19,30-tetrazapentacyclo[23.3.1.12,5.015,23.016,20]triaconta-1(29),2(30),4,15,17,20,22,25,27-nonaen-6-yl]phenyl]propanoic Acid]	C (a value between 20 and 80 is marked “C”)	C (a value greater than 10 °C and less than or equal to 25 °C is marked “C”)
Cn1nc2nc1-c1cc(ccc1F)[S+]([O-])c1c(F)c(F)c3[nH]ccc3c1CCS(=O)(=O)CC(C)(C)CCC[C@]2(C)c1cccc(CC(C)(C)C(=O)O)c1 (stereo partly drawn) [Compound 280, 2,2-dimethyl-3-[3-[(6R)-21,22,28-trifluoro-3,6,10,10-tetramethyl-12,12,24-trioxo-12λ6,24λ4-dithia-3,4,19,30-tetrazapentacyclo[23.3.1.12,5.015,23.016,20]triaconta-1(29),2(30),4,15,17,20,22,25,27-nonaen-6-yl]phenyl]propanoic Acid]	C (a value between 20 and 80 is marked “C”)	C (a value greater than 10 °C and less than or equal to 25 °C is marked “C”)
